Data taken from patent publication USRE49873E1, “APP specific bace inhibitors (ASBIs) and uses thereof” (BUCK INSTITUTE FOR RESEARCH ON AGING, priority 2012, dated 2024).
“Also recorded” adds a separate entry of the source.

Assays:
[1] = test system: Aβ1-40 and Aβ1-42 levels in hippocampal/entorhinal cortical tissue; assay: Pilot efficacy testing in PDAPP (J20) AD model mice, Aβ ELISA; assay type: in vivo; conditions: 40 mpk sc daily for 14 days, hippocampus and cortex
Method: Galangin and progalangin (PG-1) were dissolved in 10% solutol/15% DMSO/75% polyethylene glycol (PEG). Stock solutions were prepared at 10 mg/ml for each compound and 100 ul was injected subcutaneously daily for 14 days at a dose of 40 mkd. There were 5 PDAPP AD model J20 mice in both the galangin and progalangin groups, and 9 vehicle-only treated J20 controls. Mice were anesthetized, blood collected for plasma, and brain tissue collected as described above 2 hours after injection on the last day of treatment. The right hemibrain was further microdissected to isolate hippocampus and entorhinal cortex and this combined tissue was used for biochemical analysis. The remaining tissue and plasma was sent to IAS for compound level analysis.
Aβ1-42 and Aβ1-40 levels were determined using the hippocampal/entorhinal cortical tissue. Briefly, frozen tissue samples were weighed, and a 20% w/v sonicate prepared in 5M guandine-HCl/50 mM Tris, pH8. Sonication was performed with sample tubes in ice water, 4×5 seconds at 60 Hz, then 3×5 seconds at 80 Hz. Samples were then rotated at room temperature for 3 hours and frozen at −20° C. until assay. Invitrogen ELISA kits were used for Aβ1-40 and Aβ1-42 according to the manufacturer's instructions.

[2] = test system: BACE1 cleavage of neuregulin1 in HEK293 cells; assay: Neuregulin1 shedding assay (SEAP-NRG1-β1); assay type: cell-based, human; conditions: 10 μM, HEK293 cells co-expressing BACE1
Method: Chinese Hamster Ovary (CHO) cells stably over-expressing human APP were treated with 10 μM Galangin or DMSO for 24 hr, then the cell lysates and conditioned media were collected. The levels of full length APP and β-CTF in the cell lysates and the levels of sAPPα in the conditioned media were detected by western blot. […] BACE1-dependent cleavage of SEAP-NRG1-β1 was evaluated by SEAP assays with supernatants of control human embryonic kidney 293 (HEK293) cells (SEAP-NRG1-β1) or HEK293 cells co-expressing BACE1 (SEAP-NRG1-β1+BACE1), treated with DMSO or Galangin (10 μM). An increase in shedding of the SEAP-NRG1-b1 fusion protein was measured upon BACE1 co-expression. Shedding in co-expressing cells was not suppressed by Galangin. Error bars indicate SEM. (N.S., p>0.05; n=4, student t test).
A cDNA construct encoding a human placental secreted alkaline phosphatase (SEAP)-NRG1 (pAPtag5-NRG1-β1) fusion protein was transfected in HEK293 cells in a 6-well format with or without full-length wild-type BACE1 using Lipofectamine 2000 (Invitrogen) as described previously (Vassar et al. (1999) Science, 286: 735-741). After transfection the medium was replaced with DMEM containing 10% heat-inactivated Fetal Bovine Serum and incubated for 24 hr. SEAP activity was measured in the conditioned medium. […] The absorbance was read at 405 nm. […]

TRX-eAPP575-624 = target: T1, TRX-eAPP575-624 (Homo sapiens, UniProt P05067); assay: Surface plasmon resonance binding to APP ectodomain fragments; conditions: FIG. 5B
T1 construct: thioredoxin (TRX) and residues 575-624 of the ectodomain; made in house
T1 sequence (P05067 650-699): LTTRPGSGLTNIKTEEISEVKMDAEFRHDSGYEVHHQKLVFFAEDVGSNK
Method: Three fusion proteins were immobilized via amine coupling using 20 mM phosphate, 125 mM sodium chloride pH 7.4. The three proteins were MBP-eAPP230-624—a fusion protein containing maltose binding protein (MBP) and residues 230624 of the ectodomain of APP (90-kDa) (FC4), eAPP230-624—a protein that contains only residues 230-624 (45-kDa)(FC2), and TRX-eAPP575-624—a fusion protein containing thioredoxin (TRX) and residues 575-624 of the ectodomain (20 -kDa) (FC3). The proteins were produced as described in Libeu, et al. (2011) J. Alzheimers Dis., 25(3): 547-566 Libeu et al (2011). The flow cell FC1 was used as a control. Galangin was diluted from 10 mM solutions in DMSO to 50 μM in 1% DMSO, 20 mM sodium phosphate pH 7.4, 125 mM sodium chloride, 0.05% Tween and then serially diluted by 1.5 for 10 steps. Binding traces were recorded for each dilution with a binding phase of 60 seconds and a dissociation phase of 240 seconds. Each cycle was performed at 20° C. with a constant flow rate of 20 μl/min. […]
The binding affinity of the compounds for the ectodomain of APP was determined using SPR. […] Galangin at various concentrations were used in the flow through over the chip and the plasmon resonance signal was determined using a Biacore T100 (FIG. 5B).

O=c1c(O)c(-c2ccccc2)oc2cc(O)cc(O)c12 [Galangin]
Aβ1-42 (Aβ42) levels in brain [1]: unchanged | Aβ1-40 (Aβ40) levels in brain ([1]; 40 mg/kg): some reduction of Aβ40; also recorded: slightly lower | BACE1-dependent shedding of SEAP-NRG1-β1 [2]: does not inhibit BACE1 cleavage of neuregulin1 | binding to APP by SPR (TRX-eAPP575-624): demonstrated binding to the APP substrate
